Here are results for 21 compounds from ChEMBL document CHEMBL1136277, “(R)-3-(N-methylpyrrolidin-2-ylmethyl)-5-(1,2,3,6-tetrahydropyridin-4-yl)-1H-indole derivatives as high affinity h5-HT1B/1D ligands” (Bioorg Med Chem Lett, 2003).

In experiment [1] the target is T1, 5-hydroxytryptamine receptor 1B (Homo sapiens, UniProt P28222). Nature of the experiment: Selectivity ratio against cloned human 5-HT1B receptor to that of h5-HT1D receptor.
Experiment [2] has as its target T1, 5-hydroxytryptamine receptor 1B. Nature of the experiment: Binding affinity towards cloned human 5-hydroxytryptamine 1B receptor.
The target of experiment [3] is 5-hydroxytryptamine receptor 1D (Homo sapiens, UniProt P28221). Nature of the experiment: Binding affinity towards cloned human 5-hydroxytryptamine 1D receptor.
Sequence of 5-hydroxytryptamine receptor 1D (P28221 whole entry): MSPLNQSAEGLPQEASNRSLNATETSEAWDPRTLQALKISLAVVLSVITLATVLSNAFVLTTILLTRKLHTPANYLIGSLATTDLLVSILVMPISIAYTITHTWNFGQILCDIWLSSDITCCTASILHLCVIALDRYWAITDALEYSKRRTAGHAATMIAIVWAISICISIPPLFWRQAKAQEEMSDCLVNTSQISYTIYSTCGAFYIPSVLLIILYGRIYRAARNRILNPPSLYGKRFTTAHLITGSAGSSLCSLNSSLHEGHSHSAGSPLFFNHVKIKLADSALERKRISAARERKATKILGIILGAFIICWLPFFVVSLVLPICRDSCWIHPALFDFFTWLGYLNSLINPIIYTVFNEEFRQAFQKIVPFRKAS

T1 sequence (P28222 whole entry): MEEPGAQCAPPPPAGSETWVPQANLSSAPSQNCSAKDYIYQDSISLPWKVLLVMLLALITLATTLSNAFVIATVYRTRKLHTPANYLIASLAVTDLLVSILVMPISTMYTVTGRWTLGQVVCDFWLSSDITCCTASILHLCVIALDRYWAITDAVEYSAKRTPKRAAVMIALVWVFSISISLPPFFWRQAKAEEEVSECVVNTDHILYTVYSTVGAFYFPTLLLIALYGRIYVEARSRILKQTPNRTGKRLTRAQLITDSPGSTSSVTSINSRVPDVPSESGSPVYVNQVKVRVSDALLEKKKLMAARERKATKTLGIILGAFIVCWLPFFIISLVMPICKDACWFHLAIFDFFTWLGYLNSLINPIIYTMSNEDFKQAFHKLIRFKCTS

Turning to `Cc1ccc(/N=C(\S)N2CC=C(c3ccc4[nH]cc(C[C@H]5CCCN5C)c4c3)CC2)cc1`, the Selectivity in experiment [1] worked out at 3.9.
In general, Ki refers to a measure of affinity in units of concentration, obtained from inhibition or displacement. Higher therefore signals a looser hold on the target. Consider `Cc1ccc(S(=O)(=O)N2CC=C(c3ccc4[nH]cc(C[C@H]5CCCN5C)c4c3)CC2)cc1`, for which, in experiment [1], the Selectivity is 21. Further, the figures for the Ki in experiment [2] and in experiment [3] were 17 nM and 0.8 nM, respectively.
The corresponding values for `COc1ccc(NC(=S)N2CC=C(c3ccc4[nH]cc(C[C@H]5CCCN5C)c4c3)CC2)cc1` are 5.2, 2.4 nM and 0.46 nM.
As for `CN1CCC[C@@H]1Cc1c[nH]c2ccc(C3=CCN(C(=S)NC4CCCCC4)CC3)cc12`, the Ki in experiment [2] stood at 13 nM; in experiment [3], 2 nM.
As for `CN1CCC[C@@H]1Cc1c[nH]c2ccc(C3=CCN(/C(S)=N/C45C[C@H]6C[C@@H](C4)C[C@@H](C5)C6)CC3)cc12`, the Selectivity in experiment [1] turned out to be 7. In addition, the Ki amounted to 39 nM in experiment [2] and 5.6 nM in experiment [3].
The matching figures for `Cc1ccc(NC(=O)N2CC=C(c3ccc4[nH]cc(C[C@H]5CCCN5C)c4c3)CC2)cc1`: 9.7, 3 nM and 0.31 nM.
For `COc1ccc(NC(=O)N2CC=C(c3ccc4[nH]cc(C[C@H]5CCCN5C)c4c3)CC2)cc1`, in experiment [1], the Selectivity is 10. The figures for the inhibition constant (Ki) in experiment [2] and in experiment [3] were 4.2 nM and 0.42 nM, respectively.
As to `CN1CCC[C@@H]1Cc1c[nH]c2ccc(C3=CCN(C(=S)Nc4ccccc4)CC3)cc12`, the figures for the Ki in experiment [2] and in experiment [3] were 5.8 nM and 0.68 nM, respectively.
For the compound `CN1CCC[C@@H]1Cc1c[nH]c2ccc(C3=CCN(C(=O)Nc4cccc5ccccc45)CC3)cc12`, in experiment [1], the Selectivity worked out at 8.4. Further, the Ki in experiment [2] amounted to 3.8 nM; in experiment [3], 0.45 nM.
The corresponding values for `CN1CCC[C@@H]1Cc1c[nH]c2ccc(C3=CCN(S(=O)(=O)c4cccc5ccccc45)CC3)cc12` are 26, 23 nM and 0.88 nM.
As for `CN1CCC[C@@H]1Cc1c[nH]c2ccc(C3=CCN(/C(S)=N/C4CCCCC4)CC3)cc12`, in experiment [1], the Selectivity is 6.3.
For the compound `Cc1ccc(NC(=S)N2CC=C(c3ccc4[nH]cc(C[C@H]5CCCN5C)c4c3)CC2)cc1`, the figures for the inhibition constant Ki in experiment [2] and in experiment [3] were 1.5 nM and 0.38 nM, respectively.
With `COc1ccc(S(=O)(=O)N2CC=C(c3ccc4[nH]cc(C[C@H]5CCCN5C)c4c3)CC2)cc1`, the Selectivity in experiment [1] worked out at 19. In addition, the Ki came out at 14 nM in experiment [2] and 0.76 nM in experiment [3].
The matching figures for `CN1CCC[C@@H]1Cc1c[nH]c2ccc(C3=CCN(/C(S)=N/c4ccc(Cl)cc4)CC3)cc12`: 2.7, 1.5 nM and 0.56 nM.
As to `CN1CCC[C@@H]1Cc1c[nH]c2ccc(C3=CCN(/C(S)=N/c4ccccc4)CC3)cc12`, the Selectivity in experiment [1] worked out at 8.5.
Consider `CN(C)CCc1c[nH]c2ccc(C3=CCN(C)CC3)cc12`, for which the Ki came to 610 nM in experiment [2] and 8 nM in experiment [3].
On to `CN1CCC[C@@H]1Cc1c[nH]c2ccc(C3=CCN(C(=O)NC45C[C@H]6C[C@@H](C4)C[C@@H](C5)C6)CC3)cc12`, for which, in experiment [1], the Selectivity amounted to 2.8. The Ki turned out to be 11 nM in experiment [2] and 4 nM in experiment [3].
The corresponding values for `CN1CCC[C@@H]1Cc1c[nH]c2ccc(C3=CCN(C(=O)Nc4ccccc4)CC3)cc12` are 11, 4.8 nM and 0.45 nM.
The matching figures for `CN1CCC[C@@H]1Cc1c[nH]c2ccc(C3=CCN(/C(S)=N/c4cccc5ccccc45)CC3)cc12`: 4.6, 3.2 nM and 0.7 nM.
As to `CN1CCC[C@@H]1Cc1c[nH]c2ccc(C3=CCN(C(=O)Nc4ccc(Cl)cc4)CC3)cc12`, the Selectivity in experiment [1] stood at 10. Besides, the Ki in experiment [2] stood at 3.8 nM; in experiment [3], 0.38 nM.
The corresponding values for `CN1CCC[C@@H]1Cc1c[nH]c2ccc(C3=CCN(C(=O)NC4CCCCC4)CC3)cc12` are 4.6, 14 nM and 3 nM.
